Where two headings read alike, the source gives them in different places.
How the values were obtained:
genotype 1a HCV-SGR = assay: microbe, parasite or virus in culture; type: cell-based, hepatitis C virus
[1] = tested on: genotype 1b HCV-SGR(L31V/Y93H); assay: microbe, parasite or virus in culture; type: cell-based, hepatitis C virus
[2] = tested on: HCV genotype 1b bicistronic replicon (I389-Neo/NS3-3'/5.1); assay: genotype 1b HCV-SGR replicon model, stable Huh7.5 cells, RT-qPCR; type: cell-based, hepatitis C virus; settings: 3 days
Protocol: of at least two independent measurements.
The cells were treated for
without G418. […] HCV‐SGR RNA
results were normalized to GAPDH.
replicates in cell culture.
antiviral activities. Nat Commun 7:12777.

CypA PPIase activity = CypA PPIase activity (Homo sapiens, UniProt P62937); assay: CypA PPIase enzyme assay, chymotrypsin coupled; settings: read-out: PPIase inhibition IC50, 20°C
CypA PPIase activity, sequence (P62937 whole entry): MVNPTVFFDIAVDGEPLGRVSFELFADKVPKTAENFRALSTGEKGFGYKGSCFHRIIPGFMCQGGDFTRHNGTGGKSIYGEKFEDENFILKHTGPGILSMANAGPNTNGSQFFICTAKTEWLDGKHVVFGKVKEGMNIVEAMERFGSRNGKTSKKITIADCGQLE

[3] = tested on: Infectious J6/JFH1 HCV genotype 2a/2a; assay: infectious HCV model, luciferase; type: cell-based, hepatitis C virus; settings: read-out: Mean EC50 ± SD, Infectious J6/JFH1 HCV genotype 2a/2a
genotype 5a HCV-SGR = assay: genotype 5a HCV-SGR, stable Huh7.5 cells, luciferase; type: cell-based, hepatitis C virus; settings: 48 h, read-out: Mean EC50 ± SD, HCV-SGR Genotype 5a
CypA-NS5A interaction = CypA-NS5A interaction (Homo sapiens, UniProt P62937); type: binding
CypA-NS5A interaction, sequence (P62937 whole entry): as above

[4] = tested on: chimeric genotype 2a/4a HCV-SGR; assay: chimeric genotype 2a/4a HCV-SGR, transient, luciferase; settings: read-out: Mean EC50 ± SD, HCV-SGR Genotype 2a/4a
[5] = tested on: genotype 1b HCV-SGR L303P; assay: microbe, parasite or virus in culture; type: cell-based, hepatitis C virus; settings: for EC50: 96 h, read-out: Mean EC50 ± SD, L303P
Protocol: (§1) Candidate resistance-associated substitutions (RASs) were introduced into a wild-type genotype 1b HCV-SGR containing the luciferase reporter gene by means of site-directed mutagenesis (QuikChange II XL site-directed mutagenesis kit; Agilent Technologies, Santa Clara, CA, USA). […] The replication capacity of the RAS-containing HCV-SGR was assessed by comparing luciferase activities at 4 h and 96 h posttransfection and expressed as a percentage of the wild-type replication capacity.

[6] = tested on: genotype 1b HCV-SGR E442G; assay: microbe, parasite or virus in culture; type: cell-based, hepatitis C virus; settings: for EC50: 96 h, read-out: Mean EC50 ± SD, E442G
Protocol: as §1

[7] = tested on: genotype 1b HCV-SGR R304W; assay: microbe, parasite or virus in culture; type: cell-based, hepatitis C virus; settings: for EC50: 96 h, read-out: Mean EC50 ± SD, R304W
Protocol: as §1

[8] = tested on: genotype 1b HCV-SGR K308I; assay: microbe, parasite or virus in culture; type: cell-based, hepatitis C virus; settings: for EC50: 96 h, read-out: Mean EC50 ± SD, K308I
Protocol: as §1

[9] = tested on: genotype 1b HCV-SGR I133V; assay: microbe, parasite or virus in culture; type: cell-based, hepatitis C virus; settings: for EC50: 96 h, read-out: Mean EC50 ± SD, I133V
Protocol: as §1

[10] = tested on: genotype 1b HCV-SGR Y321H; assay: microbe, parasite or virus in culture; type: cell-based, hepatitis C virus; settings: for EC50: 96 h, read-out: Mean EC50 ± SD, Y321H
Protocol: as §1

[11] = tested on: genotype 1b HCV-SGR D320E; assay: microbe, parasite or virus in culture; type: cell-based, hepatitis C virus; settings: for EC50: 96 h, read-out: Mean EC50 ± SD, D320E
Protocol: as §1

genotype 1b HCV-SGR = assay: microbe, parasite or virus in culture; type: cell-based, hepatitis C virus
Protocol: Candidate resistance-associated substitutions (RASs) were introduced into a wild-type genotype 1b HCV-SGR containing the luciferase reporter gene by means of site-directed mutagenesis (QuikChange II XL site-directed mutagenesis kit; Agilent Technologies, Santa Clara, CA, USA). Ninety-six hours after RNA transfection, the susceptibility of the RAS-containing HCV-SGR to compound 31 was determined by measurement of luciferase activity and comparison to wild-type HCV-SGR susceptibility. The replication capacity of the RAS-containing HCV-SGR was assessed by comparing luciferase activities at 4 h and 96 h posttransfection and expressed as a percentage of the wild-type replication capacity.

CypA = target: T1, CypA (Homo sapiens, UniProt P62937); assay: TR-FRET competitive binding assay against labeled CsA
T1 construct: purchased Selcia, Ongar, UK
T1 sequence (P62937 whole entry): as above

genotype 2a HCV-SGR = assay: genotype 2a HCV-SGR, transient, luciferase; settings: read-out: Mean EC50 ± SD, HCV-SGR Genotype 2a
ZIKV strain MR766 = assay: ZIKV replication in Huh7 cells, RT-qPCR; type: cell-based, Zika virus
genotype 3a HCV-SGR = assay: genotype 3a HCV-SGR, stable Huh7.5 cells, luciferase; type: cell-based, hepatitis C virus; settings: 48 h, read-out: Mean EC50 ± SD, HCV-SGR Genotype 3a
JEV = JEV replication; type: cell-based, Japanese encephalitis virus; settings: data not shown
[12] = target: CypA-NS5A-D320E interaction (Homo sapiens, UniProt P62937); type: binding; settings: NS5A-D320E-Rluc, CypA-6His on Ni-NTA beads
CypA-NS5A-D320E interaction, sequence (P62937 whole entry, stated change not applied): as the sequence (P62937 whole entry) above

WNV = WNV replication; type: cell-based, West Nile virus; settings: 50 μM the highest concentration tested, data not shown
[13] = tested on: DENV-4 strain Dominica 814669; assay: DENV replication in Huh7 cells, RT-qPCR; type: cell-based, dengue virus; settings: RT-qPCR at 48 h postinfection
Huh7 cells = settings: read-out: 50% cytotoxic concentration (CC50); flavivirus experiments
Huh7.5 cells = assay: cytotoxicity MTT assay; type: cell-based, Human; settings: at its effective concentration, 3 days
YFV strain Dakar HD 1279 = type: cell-based, yellow fever virus; settings: Huh7 cells, RT-qPCR at 48 h postinfection; read-out: EC50, YFV replication
[14] = tested on: full-length infectious HCV genotype 3a (DBN-3acc); assay: full-length DBN-3acc replication, RT-qPCR; type: cell-based, hepatitis C virus; settings: at 10 μM, Huh7.5 cells, 120 hours
Source text: Madison, Wisconsin, USA).
(Promega) and quantified by RT‐qPCR.
(1 mi n ). […] The percent inhibition of […]

COC(=O)N[C@H](C(=O)N1CC2(CC2)C[C@H]1c1nc(-c2ccc3c(c2)C(F)(F)c2cc(-c4ccc5[nH]c([C@@H]6[C@H]7CC[C@H](C7)N6C(=O)[C@@H](NC(=O)OC)C(C)C)nc5c4)ccc2-3)c[nH]1)C(C)C [LDV, ledipasvir]
EC50 (genotype 1a HCV-SGR; Hepatitis C virus, Huh7.5, read-out: EC50 used in the combination study, genotype 1a HCV-SGR): 0.01 nM
increase in the LDV EC50, L31V and Y93H substitutions ([1]; genotype 1b HCV-SGR, versus wild type, data not shown): 714 fold

CSCCC(NC(=O)NCc1ccc(N)cc1)C(=O)N1CCCC1c1ccccc1SC (centres unmarked) [Compound C34]
EC50 [2]: 1630 ± 380 nM

CSc1ccccc1C1CCCN1C(=O)C(C)NC(=O)NCc1ccc(N)cc1 (centres unmarked) [Compound C33, 1‐[(4‐aminophenyl)methyl]‐3‐(1‐{2‐[2‐(methylsylfanyl)phenyl]pyrrolidin‐1‐yl}‐1‐oxopropan‐2‐yl)urea]
IC50 (CypA PPIase activity): 3080 ± 1170 nM
EC50 [2]: 12900 ± 1200 nM

Nc1ccc(CNC(=O)NCC(=O)N2CCCC2c2cccc3ccccc23)cc1 (centres unmarked) [Compound C32]
IC50 (CypA PPIase activity): 1490 ± 450 nM
EC50 [2]: 9010 ± 2040 nM

Nc1ccc(CNC(=O)NCC(=O)N2CCCC2c2ccccc2Br)cc1 (centres unmarked) [Compound C35]
EC50 [2]: 4510 ± 520 nM

COc1ccccc1C1CCCN1C(=O)CNC(=O)NCc1ccc(N)cc1 (centres unmarked) [Compound C36]
IC50 (CypA PPIase activity): 5030 ± 1810 nM
EC50 [2]: 19700 ± 2900 nM

C/C=C/C[C@@H](C)[C@@H](O)[C@H]1C(=O)N[C@@H](CC)C(=O)N(C)[C@H](C)C(=O)N(CC)[C@@H](C(C)C)C(=O)N[C@@H](C(C)C)C(=O)N(C)[C@@H](CC(C)C)C(=O)N[C@@H](C)C(=O)N[C@H](C)C(=O)N(C)[C@@H](CC(C)C)C(=O)N(C)[C@@H](CC(C)C)C(=O)N(C)[C@@H](C(C)C)C(=O)N1C [ALV, Alisporivir, reference compound]
EC50 ([3]; Hepatitis C virus, Huh7.5, 72 h): 30 ± 2 nM
EC50 (genotype 5a HCV-SGR; Hepatitis C virus): 10 ± 10 nM
disruption of the CypA-NS5A interaction (CypA-NS5A interaction): disrupted
EC50 ([4]; Hepatitis C virus, GETYPE2A, Huh7.5, 72 h): 10 ± 2 nM
EC50 ([5]; Hepatitis C virus): 40 ± 10 nM
EC50 ([6]; Hepatitis C virus): 30 ± 4 nM
EC50 ([7]; Hepatitis C virus): 30 ± 4 nM
EC50 ([8]; Hepatitis C virus): 40 ± 4 nM
EC50 ([9]; Hepatitis C virus): 20 ± 1 nM
EC50 ([10]; Hepatitis C virus): 60 ± 20 nM
EC50 ([11]; Hepatitis C virus): 120 ± 50 nM
EC50 (genotype 1b HCV-SGR; Hepatitis C virus, transient, Huh7.5 cells, 96 h posttransfection, luciferase, read-out: Mean EC50 ± SD, HCV-SGR Genotype 1b): 30 ± 10 nM
EC50 (genotype 1b HCV-SGR; Hepatitis C virus, wild-type genotype 1b HCV-SGR, read-out: Mean EC50 ± SD, WT): 30 ± 10 nM
EC50 (genotype 1a HCV-SGR; Hepatitis C virus, stable Huh7.5 cells, 48 h, luciferase, read-out: Mean EC50 ± SD, HCV-SGR Genotype 1a): 40 ± 30 nM
Kd (CypA; purified CypA): < 5 nM
EC50 (genotype 2a HCV-SGR; Hepatitis C virus, GETYPE2A, Huh7.5, 48 h): 20 ± 10 nM
inhibition of ZIKV replication (ZIKV strain MR766; data not shown): did not inhibit
EC50 (genotype 3a HCV-SGR; Hepatitis C virus): 20 ± 10 nM
EC50 ([1]; Hepatitis C virus, 84 h, read-out: Mean EC50 ± SD, L31V/Y93H): 10 ± 1 nM

CSc1ccccc1C1CCCN1C(=O)C(NC(=O)NCc1ccc(N)cc1)c1ccccc1 (centres unmarked) [Compound C31]
EC50 ([3]; Huh7.5 cells, 72 h, luciferase): 2800 ± 400 nM
effect against JEV replication (JEV): no effect
IC50 (CypA PPIase activity): 100 ± 10 nM
disruption of the NS5A-D320E interaction with CypA [12]: fully sensitive
EC50 (WNV): > 50000 nM
EC50 [13]: 7300 ± 3500 nM
EC50 (genotype 5a HCV-SGR): 1200 ± 830 nM
CC50 (Huh7 cells): ≥ 100000 nM
disruption of the CypA-NS5A interaction (CypA-NS5A interaction; WT-NS5A-Rluc, CypA-6His on Ni-NTA beads): disrupted
EC50 ([4]; transient, Huh7.5 cells, 72 h posttransfection, luciferase): 1400 ± 1100 nM
Fold change, L303P ([5]; EC50 relative to wild type): 1.0
EC50 ([5]; genotype 1b HCV-SGR): 3050 ± 400 nM
Fold change, E442G ([6]; EC50 relative to wild type): 1.0
EC50 ([6]; genotype 1b HCV-SGR): 2990 ± 700 nM
Fold change, R304W ([7]; EC50 relative to wild type): 0.8
EC50 ([7]; genotype 1b HCV-SGR): 2470 ± 200 nM
Fold change, K308I ([8]; EC50 relative to wild type): 0.9
EC50 ([8]; genotype 1b HCV-SGR): 2590 ± 200 nM
Fold change, I133V ([9]; EC50 relative to wild type): 0.9
EC50 ([9]; genotype 1b HCV-SGR): 2750 ± 200 nM
Fold change, Y321H ([10]; EC50 relative to wild type): 1.8
EC50 ([10]; genotype 1b HCV-SGR): 5410 ± 400 nM
Fold change, D320E ([11]; EC50 relative to wild type): 3.0
EC50 ([11]; genotype 1b HCV-SGR): 8730 ± 1100 nM
Fold change, WT (genotype 1b HCV-SGR; EC50 relative to wild type): 1.0
EC50 (genotype 1b HCV-SGR; transient, Huh7.5 cells, 96 h posttransfection, luciferase, read-out: Mean EC50 ± SD, HCV-SGR Genotype 1b): 2950 ± 600 nM
EC50 (genotype 1b HCV-SGR; wild-type genotype 1b HCV-SGR, read-out: Mean EC50 ± SD, WT): 2950 ± 600 nM
EC50 (genotype 1a HCV-SGR; stable Huh7.5 cells, 48 h, luciferase, read-out: Mean EC50 ± SD, HCV-SGR Genotype 1a): 3800 ± 1900 nM
Kd (CypA; read-out: Kd, displacement of labeled CsA from CypA, purified CypA): 105 nM
EC50 (genotype 2a HCV-SGR; transient, Huh7.5 cells, 48 h posttransfection, luciferase): 2300 ± 1200 nM
EC50 (ZIKV strain MR766; Huh7 cells, RT-qPCR at 48 h postinfection): 48000 ± 5600 nM
EC50 (genotype 3a HCV-SGR): 7760 ± 1570 nM
cell viability (Huh7.5 cells): did not affect
EC50 (YFV strain Dakar HD 1279): 27200 ± 4700 nM
maximal HCV RNA reduction, DBN-3acc RNA replication [14]: 244 fold
EC50 [2]: 400 ± 10 nM
